In patent US12055539B2, “HDAC1/2 activator for promoting and/or accelerating myelination and/or remyelination” (UNIVERSITE DE FRIBOURG, priority 2017, dated 2024):
Entries after “also recorded” stand apart in the source; their conditions may differ.

Experiments:
[1] = tested on: HDAC1/2; assay: Acetyl-lysine immunoprecipitation and LC-MS/MS of sciatic nerves after crush lesion; format: in vivo, mouse; conditions: 10 mg/kg in pelvic cavity after sciatic nerve crush, nerves collected 24 h later, compared to vehicle
Method: Sciatic nerve crush lesions were carried out in adult mice (3-4 month old) with the following procedure: Isoflurane (3% for induction, 1.5-2% for narcosis during operation) was used for anesthesia. For analgesia, 0.1 mg/kg buprenorphine (Temgesic; Essex Chemie) was administered by i.p. injection 1 h before lesion and 12 hours after the operation. An incision was made at the height of the hip and the sciatic nerve was exposed on one side. The nerve was crushed (5×10 sec with crush forceps: Ref FST 00632-11) and the wound was closed using Histoacryl Tissue Glue (BBraun). After the operation, mice were wrapped in paper towels and placed on a warming pad until recovery from anesthesia.
For immunoprecipitation (IP), the injured sciatic nerve was collected from the lesion site to around 12 mm distal to the lesion site (region where the nerve splits into the three branches of tibial, sural and common peroneal nerves). After perineurium removal, sciatic nerves were frozen in liquid nitrogen, pulverized with a chilled mortar and pestle, lysed in radiolP assay (RIPA) buffer (10 mM Tris/HCl, pH 7.4, 150 mM NaCl, 50 mM NaF, 100 mM NaVO4, 1 mM EDTA, 0.5% wt/vol sodium deoxycholate, and 0.5% Nonidet P-40) for 15 min on ice, and centrifuged to pellet debris. Supernatants were collected and pre-cleared for 1 h with 30 gl protein A/G PLUS agarose beads (Santa Cruz Biotechnology). […]

[2] = tested on: HDAC1/2; assay: Subcellular fractionation, IP and Western blot in de-differentiated rat Schwann cells; format: cell-based
Method: Purified primary rat Schwann cell cultures were obtained as described (ref. 5). Rat Schwann cells were then grown in proliferation medium: DMEM containing 10% Fetal calf serum (FCS, Gibco), 1:500 penicillin/streptomycin (Invitrogen), 4 μg/m1 crude GGF (bovine pituitary extract, Bioconcept), and 2 μM forskolin (Sigma), at 37° C. and 5% CO2/95% air. Schwann cell de-differentiation culture protocol was previously described (ref. 6). Briefly, Schwann cells were first growth-arrested in defined medium (DM, ref. 5) for 8 to 15 h, then 1 mM dbcAMP (Sigma) was added to induce differentiation. Cells were incubated in this medium for another 3 days. The medium was then changed to DM only without dbcAMP, and incubated in this medium for 3 days (differentiation mimicking adult Schwann cell stage). To induce de-differentiation, cells were then changed to proliferation medium and incubated in this medium for 3 days.
Two 15-cm culture plates of confluent de-differentiated rat Schwann cells were used per IP. Cells were either treated with 0.6 μM Mocetinostat (HDAC1/2 inhibitor) or its vehicle for 3 days in de-differentiation medium. Cells were washed with PBS and submitted to subcellular fractionation to separate the nuclear from the cytoplasmic fractions. IPs were then carried out on each fraction nuclear and cytoplasmic, as described above. Immunoprecipitating antibodies: 2.5 μg of eEF1A1 (rabbit, Abcam, cat. # ab157455), Sox10 (rabbit, DCS Innovative Diagnostik-Systeme, cat. # 51058C01) or GFP (rabbit, Abcam, cat. # ab290) antibodies were used per IP. Rabbit anti-GFP antibody was used as negative control IP. Acetylation of eEF1A1 and co-immunoprecipitation of acetylated eEF1A with Sox10 were detected using EEF1A-pan (Acetyl-Lys41) primary antibody (rabbit, Assay Biotech, 1:1000, cat. # D12106). Co-immunoprecipitation of HDAC2 with eEF1A1 was detected using an HDAC2 antibody (mouse, Sigma, 1:1000, cat. # H2663). Light chain-specific goat anti-rabbit-HRP or anti-mouse-HRP secondary antibodies (Jackson ImmunoResearch) were used. Detection was done with Immobilon Western Chemiluminescent HRP Substrate (Millipore). Inputs of the IPs were assayed on lysates used for IPs. GAPDH (mouse, Gene Tex, 1:5000, cat. # GTX28245) and LaminA/C (mouse, Sigma, 1:2000, cat. # SAB4200236) antibodies were used to evaluate the efficiency of cytoplasmic and nuclear fractionation.

[3] = tested on: HDAC1/2; assay: Immunofluorescence of spinal cord after intrathecal HDAC1/2 inhibitor; format: in vivo, mouse; conditions: single intrathecal injection 10 mg/kg, spinal cord collected after 24 h, vs vehicle
Method: For immuno fluorescence, adult mice were treated with a single intratechal injection of 10 mg/kg Mocetinostat (HDAC1/2 inhibitor) or its vehicle and their spinal cord was collected 24 h after injection. Mice were killed and perfused with 4% PFA and their spinal cord was processed as described above in Example 8. Primary antibody: EEF1A-pan (Acetyl-Lys41) antibody (rabbit, Assay Biotech, 1:1000, cat. # D12106), CC1 (mouse, 1:200, Calbiochem/Millipore, cat. # OP80).

[4] = tested on: mice after sciatic nerve crush lesion; assay: Toe pinch test after sciatic nerve crush lesion; format: in vivo, mouse; conditions: 10 mg/kg/day i.p. from 9 to 13 dpl, vs vehicle
Method: (§1) Adult mice were treated with theophylline or vehicle as described above in Example 4 from 9 to 13 days post sciatic nerve crush lesion (carried out as described above in Example 1). Mice were placed three times on the Rotarod apparatus at a fixed speed of 15 rpm to test balance and motor coordination, at 14 and 30 dpl. The duration of each trial was limited to 600 s, and trials were separated by a 30 min recovery period. Latency to fall from the rotating beam was recorded and the average of the three trials was used for quantification. Recovery of sensory function was tested at 14 and 30 dpl by toe pinch test: each toe of the rear foot on the right side (lesioned side) was pinched with equal pressure applied by the same experimenter using flat tip forceps. Immediate withdrawal was recorded as functional sensitivity of the pinched toe. […] All mice were between 3 and 4 months old. The experimenter was blinded regarding the treatment that mice received.

[5] = tested on: lysolecithin demyelinating lesion of the spinal cord; assay: Electron microscopy of spinal cord after lysolecithin lesion (remyelination); format: in vivo, mouse; conditions: 14 and 30 dpl, treated 9 to 13 days post lysolecithin lesion, vs vehicle
Method: For electron microscopy analyses, adult mice were submitted to a lysolecithin lesion and treated with theophylline or vehicle, as described above in Example 8. Mice were killed at 14 dpl or 30 dpl with 150 mg/kg pentobarbital i.p. (Esconarkon; Streuli Pharma AG) and perfused with 3% PFA and 0.15% glutaraldehyde in 0.1 M phosphate buffer, pH 7.4. Spinal cords were collected and processed as described above in Example 6.

[6] = tested on: HDAC2; assay: Western blot of P4 sciatic nerve lysates of control and HDAC1/2 dKO mice; format: in vivo, mouse; conditions: control mice, 10 mg/kg s.c. once a day for 3 days from P1, nerves at P4
Method: In P1 control and dKO mice (as described in Example 2), 10 mg/kg theophylline or its vehicle were injected subcutaneously once a day for 3 days. Sciatic nerves were collected at P4. After perineurium removal, sciatic nerves were frozen in liquid nitrogen, pulverized with a chilled mortar and pestle, lysed in RIPA buffer for 15 min on ice, and centrifuged to pellet debris. Supernatants were collected, submitted to SDS-PAGE and analysed by Western blot. Primary antibodies: HDAC2 (mouse, 1:1000, Sigma, cat. # H2663), Sox10 (rabbit, 1:250, DCS Innovative Diagnostik-Systeme, cat. # SI058C01), GAPDH (glyceraldehyde-3-phosphate-dehydrogenase, mouse, 1:5000, Genetex, cat. # GTX28245), P0 (chicken, 1:1000, Ayes Labs, cat. # PZO). Secondary antibodies were from Jackson ImmunoResearch: light chain-specific goat anti-mouse-HRP (horse radish peroxidase) and goat anti-rabbit-HRP, and heavy chain-specific goat anti-chicken-HRP.

[7] = tested on: crushed sciatic nerves; assay: Electron microscopy of crushed sciatic nerves, myelin thickness (g-ratio); format: in vivo, mouse; conditions: 10 mg/kg/day i.p. from 9 to 13 dpl, vs vehicle; for myelin sheath thickness: 10 mg/kg/day
Method: Adult mice were treated with theophylline or vehicle as described above in Example 4 from 9 to 13 days post sciatic nerve crush lesion. Injured sciatic nerves were collected for morphological analysis by electron microscopy. Briefly, mice were killed with 150 mg/kg pentobarbital i.p. (Esconarkon; Streuli Pharma AG) and sciatic nerves were fixed in situ with 3% paraformaldehyde and 0.15% glutaraldehyde in 0.1 M phosphate buffer, pH 7.4. Fixed tissues were post-fixed in 2% osmium tetroxide, dehydrated through a graded acetone series as described previously (ref. 7), and embedded in Spurr's resin (Electron Microscopy Sciences). Ultrathin cross-sections (90-nm thick) were made, as described (ref. 7). All analyses were done at 5 mm distal to the lesion site. No contrasting reagent was applied. Images were acquired using a Philips CM 100 BIOTWIN equipped with a Morada side-mounted digital camera (Olympus). The g-ratio of at least 50 axons was measured per animal and 3 animals per group (theophylline or vehicle) were used at 14 dpl. At 30 dpl, only 2 animals were used (more animals will be added at 30 days post lesion for statistical analyses).

[8] = target: T1, HDAC2 (Mus musculus, UniProt P70288); assay: Western blot of sciatic nerve lysates after sciatic nerve crush lesion; format: in vivo; conditions: 10 mg/kg/day i.p. from 9 to 13 dpl, 14 and/or 30 dpl, vs vehicle
T1 construct: from tissue; host or cells: mouse sciatic nerve (adult after crush; P4 control and Schwann-cell HDAC1/2 dKO pups)
T1 sequence (P70288 whole entry): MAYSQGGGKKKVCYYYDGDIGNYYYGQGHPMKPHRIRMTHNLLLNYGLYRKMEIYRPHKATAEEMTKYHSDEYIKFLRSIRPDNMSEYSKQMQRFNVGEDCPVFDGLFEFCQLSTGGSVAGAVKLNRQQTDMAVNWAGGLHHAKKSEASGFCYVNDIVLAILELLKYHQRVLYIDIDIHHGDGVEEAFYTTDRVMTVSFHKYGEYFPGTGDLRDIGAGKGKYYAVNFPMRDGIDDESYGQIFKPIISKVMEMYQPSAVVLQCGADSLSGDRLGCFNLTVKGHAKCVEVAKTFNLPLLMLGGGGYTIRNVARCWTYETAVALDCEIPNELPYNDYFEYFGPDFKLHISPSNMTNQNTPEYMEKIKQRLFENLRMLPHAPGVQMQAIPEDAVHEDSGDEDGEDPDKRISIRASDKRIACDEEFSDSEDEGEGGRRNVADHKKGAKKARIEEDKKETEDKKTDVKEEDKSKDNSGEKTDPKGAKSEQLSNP
Method: Adult mice were treated with intraperitoneal injection of 10 mg/kg/day theophylline or its vehicle from 9 to 13 days post sciatic nerve crush lesion. At 14 days post lesion (dpl) the injured sciatic nerve (“crush”) was collected, as well as the same region of the contralateral nerve (“contra”) as internal control for each animal. After perineurium removal, sciatic nerves were frozen in liquid nitrogen, pulverized with a chilled mortar and pestle, lysed in RIPA buffer for 15 min on ice, and centrifuged to pellet debris. Supernatants were collected, and protein concentration was determined by Lowry Protein assay (Bio-Rad Laboratories). Sciatic nerves were submitted to SDS-PAGE and analysed by Western blot. Primary antibodies: HDAC2 (mouse, 1:1000, Sigma, cat. # H2663), Sox10 (rabbit, 1:250, DCS Innovative Diagnostik-Systeme, cat. # SI058C01), GAPDH (glyceraldehyde-3-phosphate-dehydrogenase, mouse, 1:5000, Genetex, cat. # GTX28245), P0 (chicken, 1:1000, Ayes Labs, cat. # PZO), Krox20 (rabbit, 1:500, Axxora, cat. # CO-PRB-236P-100). All secondary antibodies were from Jackson ImmunoResearch: light chain-specific goat anti-mouse-HRP (horse radish peroxidase) and goat anti-rabbit-HRP, and heavy chain-specific goat anti-chicken-HRP.

[9] = tested on: mice after sciatic nerve crush lesion; assay: Rotarod after sciatic nerve crush lesion; format: in vivo, mouse; conditions: 15 rpm, 10 mg/kg/day i.p. from 9 to 13 dpl, vs vehicle
Method: as §1

[10] = target: T1, HDAC2; assay: Immunofluorescence of lysolecithin lesion site in dorsal funiculus of spinal cord; format: in vivo; conditions: 14 dpl, treated 9 to 13 days post lysolecithin lesion, vs vehicle
Method: A focal demyelinating lesion was induced in the dorsal funiculus of the spinal cord of adult mice by injection of lysolecithin (1 μl at 1%), as described (ref. 9). This demyelination model is used as a model of multiple sclerosis lesion and is well characterized, the kinetics of demyelination and remyelination being well known. Mice were treated as described above in Example 4 with theophylline or vehicle for 4 days from 9 to 13 days post lysolecithin lesion, when OLP start to re-differentiate to remyelinate demyelinated axons. Mice were killed with 150 mg/kg pentobarbital i.p. (Esconarkon; Streuli Pharma AG) and perfused with 4% PFA. Spinal cords were collected, post-fixed for 2 h in 4% PFA, incubated in 30% sucrose overnight at 4° C., embedded in OCT compound and stored at −80° C. Spinal cords were then processed as sciatic nerves for immunofluorescence, as described in Example 2. Primary antibodies: HDAC2 (rabbit, 1:200, Santa Cruz Biotechnology, cat. # sc-7899), CC1 (mouse, 1:200, Calbiochem/Millipore, cat. # OP80), MBP (rat, 1:500, Serotec, cat. # MCA409S), Sox10 (rabbit, 1:250, DCS Innovative Diagnostik-Systeme, cat. # SI058C01).

[11] = tested on: multiple sclerosis; assay: Contemplative combination treatment of MS patients; format: in vivo, human
Method: In this contemplative example, a group of female and male patients suffering from MS receiving theophylline [250 mg/day] during 1 month in addition to the standard treatment of interferon-β1a.

[12] = 0.6 μM for 3 days in de-differentiation medium

## Nc1ccccc1NC(=O)c1ccc(CNc2nccc(-c3cccnc3)n2)cc1 [Mocetinostat]
[1]
  abundance of eEF1A1 peptides after immunoprecipitation with anti-acetyl-lysine antibody: increased abundance
[2]; [12]
  Sox10 expression in the nuclear compartment: strong decrease
  Sox10 localization: partially re-localized from the nuclear to the cytoplasmic compartment
[2]; 0.6 μM for 3 days in de-differentiation medium, vs vehicle, predominantly nuclear
  acetylated eEF1A1 levels: strong increase
[2]; 0.6 μM for 3 days, nuclear and cytoplasmic fractions
  interaction (co-immunoprecipitation) of acetylated eEF1A with Sox10: potentiated
[3]
  acetylated eEF1A in mature oligodendrocytes (CC1+): robust increase; also recorded: accumulation of Ace-eEF1A in the nuclei of oligodendrocytes

## Cn1c(=O)c2[nH]cnc2n(C)c1=O [theophylline]
[4]; 14 dpl
  toe pinch test, recovery of sensory function: recovered the sensitivity of more toes
[4]; 30 dpl
  toe pinch test, recovery of sensory function: vehicle-treated mice had not yet recovered their sensory function as well as theophylline-treated mice
[5]
  remyelination of the lesioned spinal cord: strongly enhanced
[6]
  HDAC2 levels: increases; also recorded: increased levels
  P0 levels: increases; also recorded: increased levels
  Sox10 levels: increases; also recorded: increased levels
[7]; 5 mm distal to lesion site
  g-ratio (axon diameter : [axon+myelin] diameter): significantly lower
[7]; 14 dpl
  myelin sheath thickness: thicker myelin sheath
[7]; 30 dpl (only 2 animals)
  myelin sheath thickness: presumably also at 30 dpl; also recorded: thicker
[8]
  HDAC2 expression levels: increased levels
  Krox20 levels: high increase; also recorded: increased levels
  P0 (myelin protein zero) levels: high increase; also recorded: increased levels
  Sox10 levels: high increase; also recorded: increased levels
[9]; 14 dpl
  performance on the Rotarod (motor function and coordination): higher performances
[9]; 30 dpl
  performance on the Rotarod (motor function and coordination): perform as well as theophylline-treated mice
[10]
  HDAC2 expression in the lesion site of the spinal cord, including differentiated oligodendrocytes (CC1-positive): strongly increases; also recorded: higher amounts of HDAC2
  Sox10 levels in the lesion site: increases; also recorded: higher levels of Sox10
  myelin basic protein (MBP) levels in the lesion site: increases; also recorded: higher myelin content
[11]; 250 mg/day during 1 month in addition to standard interferon-β1a
  disease progression: in some cases complete stop of disease progression
[11]; 250 mg/day during 1 month in addition to standard interferon-β1a, vs standard treatment only
  remission following an attack (exacerbation): significantly faster remission
[11]; combination therapy with interferon-β1a
  life quality: substantially increased life quality
